The values that follow come from patent US4426447A, “Homocitric acid oligoriboside derivative for prevention of dental caries” (Zaidan Hojin Biseibutsu Kagaku Kenkyu Kai, priority 1980, dated 1984).

Series [1] can be described thus: Solubility (characterizing properties). The format is physicochemical. Conditions: sodium salt. From the text:
Ribocitrin in the form of its sodium salt has the following characterizing properties:
2. Soluble in water; insoluble in organic solvents.

Series [2] relates to Streptococcus mutans ATCC 27607. As to the kind of experiment: Inhibition of Streptococcus mutans adherence (adhered plaque turbidity). The format is cell-based. Particulars: for Turbidity (600 nm): 37° C., 14 hours; for inhibition at 50 µg/mL / inhibition at 100 µg/mL: Streptococcus mutans, ATCC27607, 14 h. Here is the method:
Heart Infusion bouillon (Difco) containing various concentrations of sucrose was autoclaved and added aseptically with various amounts of ribocitrin aqueous solution (filter-sterilized) or sterile water for control (final volume is 3.0 ml and final concentrations are shown in Table 1). Each tube was inoculated with 1×10^5 CFU of Streptococcus mutans ATCC 27607 grown overnight at 37° C. in Brain Heart Infusion bouillon (Difco) and incubated anaerobically in a candle jar at 37° C. for 14 hours. The tube was positioned at an angle 30° from the horizontal. Nonadherent cells were removed by pouring off the broth and the test tube was washed three times with 3 ml of 5 mM phosphate buffer (pH 6.0). The adhered plaque (insoluble dextran and cellular aggregates formed as a result of insoluble dextran production) was suspended in 3 ml of phosphate buffer described above by mechanical stirring and by scraping the surface with a glass rod. Turbidity of the suspension was measured at 600 nm.

In a further series the test system is dextransucrase. As to the kind of experiment: Inhibitory activity to dextransucrase (turbidity at 600 nm). The format is biochemical, Streptococcus mutans ATCC 27607. Particulars: qualitative statement; curve only in FIG. 4. The method, then:
Dextransucrase was prepared as follows: Streptococcus mutans ATCC 27607 was inoculated to Brain Heart Infusion bouillon (Eiken Chemical Co.) and grown overnight at 37° C. The culture supernatant obtained by centrifugation was precipitated with ammonium sulfate at 50% saturation. The precipitated enzyme was desalted and purified by conventional procedures.

Each structure is given as a SMILES string. Structures can show the parent of a compound that is named as a salt. Where two headings read alike, the source gives them in different places.

As to `O=C(O)CC[C@@](CC(=O)O)(O[C@H]1O[C@H](CO)[C@@H](O[C@H]2O[C@H](CO)[C@@H](O)[C@H]2O[C@H]2O[C@H](CO)[C@@H](O)[C@H]2O)[C@H]1O)C(=O)O` [Ribocitrin (sodium salt)], the “Solubility in organic solvents” value in series [1] (organic solvents) was “insoluble”. For the same compound, in series [1] (water), the Solubility in water result is listed as “Soluble”. Further, the “Turbidity (600 nm)” value in series [2] (50 μg/ml ribocitrin sodium salt, 0.5% sucrose) was found to be 0.510; in series [2] (50 μg/ml ribocitrin sodium salt, 1.0% sucrose), 0.340; in series [2] (50 μg/ml ribocitrin sodium salt, 2.0% sucrose), 0.333; in series [2] (100 μg/ml ribocitrin sodium salt, 0.5% sucrose) it was 0.249; in series [2] (100 μg/ml ribocitrin sodium salt, 1.0% sucrose) it was 0.173; in series [2] (100 μg/ml ribocitrin sodium salt, 2.0% sucrose) it was 0.132. The inhibition at 50 µg/mL in series [2] (read-out: Percent inhibition, 50 μg/ml ribocitrin sodium salt, 0.5% sucrose, 37° C.) came out at 17%; in series [2] (read-out: Percent inhibition, 50 μg/ml ribocitrin sodium salt, 1.0% sucrose, 37° C.), 43%; in series [2] (read-out: Percent inhibition, 50 μg/ml ribocitrin sodium salt, 2.0% sucrose, 37° C.), 33%. The inhibition at 100 µg/mL is 60% in series [2] (read-out: Percent inhibition, 100 μg/ml ribocitrin sodium salt, 0.5% sucrose, 37° C.); 71% in series [2] (read-out: Percent inhibition, 100 μg/ml ribocitrin sodium salt, 1.0% sucrose, 37° C.); 73% in series [2] (read-out: Percent inhibition, 100 μg/ml ribocitrin sodium salt, 2.0% sucrose, 37° C.).
As for `O=C(O)CC[C@@](CC(=O)O)(O[C@H]1O[C@H](CO)[C@@H](O[C@H]2O[C@H](CO)[C@@H](O)[C@H]2O[C@H]2O[C@H](CO)[C@@H](O)[C@H]2O)[C@H]1O)C(=O)O` [ribocitrin, 2-(S)-[O-α-D-ribofuranosyl-(1→2)-O-α-D-ribofuranosyl-(1→3)-α-D-ribofuranosyloxy]-1,2,4-butanetricarboxylic acid], the “Inhibitory activity toward dextransucrase (in words)” value in the series on dextransucrase is on record as “effective inhibitors of dextransucrase”.
